Here are results for four compounds from patent US20260159497A1, “SOLID FORMS OF A COMPLEMENT FACTOR B INHIBITOR” (Novartis Pharma AG, priority 2022, published 2026).

Data set [1] in a line: Solubility in Simulated Fluids at 37° C. The settings on record: for solubility at 30 min / solubility at 24 h: 37 °C, thermodynamic from solid; for solubility at 30 min: read-out: Solubility (mg/mL) 30 min; for solubility at 24 h: read-out: Solubility (mg/mL) 24 h. It is filed as physicochemical. The source says: Solubility data of Form A (S)-4-(2,2-difluoro-7-((5-methoxy-7-methyl-1H-indol-4-yl)methyl)-7-azaspiro[3.5]nonan-6-yl)benzoic acid, Form B (S)-4-(2,2-difluoro-7-((5-methoxy-7-methyl-1H-indol-4-yl)methyl)-7-azaspiro[3.5]nonan-6-yl)benzoic acid p-toluene sulfonic acid salt, Form C (S)-4-(2,2-difluoro-7-((5-methoxy-7-methyl-1H-indol-4-yl)methyl)-7-azaspiro[3.5]nonan-6-yl)benzoic acid p-toluene sulfonic acid salt, and Form D (S)-4-(2,2-difluoro-7-((5-methoxy-7-methyl-1H-indol-4-yl)methyl)-7-azaspiro[3.5]nonan-6-yl)benzoic acid hydrochloride salt in Simulated Fluids at 37° C.

The conditions of data set [2]: after 12 weeks of treatment; cited from earlier work.
A short description of data set [3]: Pharmacokinetic study after oral dosing, rat. It is filed as in vivo, SD Rat. The conditions noted are these: male, SD (Sprague-Dawley), rat, in vivo, po, solution in 20% kleptose in water, SD Rat male, Fed, 10 mL/kg; for AUC(0-t) / concentration at 24 h: oral; for AUC(0-t): read-out: AUC0-24 h; for concentration at 24 h: read-out: C24 h. Here is the method: (§1) The pharmacokinetic profile of (S)-4-(2,2-difluoro-7-((5-methoxy-7-methyl-1H-indol-4-yl)methyl)-7-azaspiro[3.5]nonan-6-yl)benzoic acid was assessed in rats, dogs or non-human primates (NHPs) as the amorphous compound as a solution in 20% kleptose in water and as a suspension of Form A in 0.5% methocel+0.1% tween 80 in water.
(§2) Amorphous (S)-4-(2,2-difluoro-7-((5-methoxy-7-methyl-1H-indol-4-yl)methyl)-7-azaspiro[3.5]nonan-6-yl)benzoic acid was weighed into a glass vial with a magnetic stir bar to give formulations at dose concentrations of 0.1-1000 mg/kg. Approx. ⅓ the final volume of 20% kleptose (hydroxypropyl β-cyclodextrin, Aldrich, CAS #128446-35-5) in water was added to the vial (to afford either a 5 mL/kg or 10 mL/kg dose volume, depending on the species). The mixture was basified to a pH of 8.5 to 10 using dropwise addition of 2-5 M aqueous NaOH solution, with pH monitoring. The suspension was stirred, vortexed, and sonicated for 15-20 minutes to afford a homogenous mixture. The second ⅓ of the final volume of 20% kleptose was added to the vial and further stirred, vortexed, and sonicated for 15-20 minutes to afford a homogenous mixture. The pH was monitored and further pH adjustment to pH 8.5 to 10, if necessary, can be applied. The final ⅓ the final volume of 20% kleptose was added to the vial and further stirred, vortexed, and sonicated for 15-20 minutes to afford a homogenous solution. The pH of the solution was adjusted to a pH of 7.5 to 8.0 with dropwise addition of 1.0 M aqueous HCl solution with gentle stirring. The formulation should remain in solution.
Form A crystalline (S)-4-(2,2-difluoro-7-((5-methoxy-7-methyl-1H-indol-4-yl)methyl)-7-azaspiro[3.5]nonan-6-yl)benzoic acid was weighed into a glass vial with a magnetic stir bar to give formulations at dose concentrations of 0.1-1000 mg/kg. The crystalline material should preferably have a particle size with a D50 below 50 μm, and ideally with a D50 below 5 μm. The desired volume of 0.5% methocel (viscosity 400 cP, Aldrich, CAS #9004-67-5)/0.1% tween-80 (Aldrich, CAS #9005-65-6) was added (to afford a 5 mL/kg dose volume). The contents of the vial were stirred at 400-500 rpm on a stir-plate. Gentle vortex or bath sonication can be applied to break down any large clumps. The vial should be mixed well to ensure homogeneity right before animal dosing.

Data set [4] can be described thus: Pharmacokinetic study after oral dosing, dog. The settings on record: in vivo, solution in 20% kleptose in water, Dog beagle male, Fasted, 5 mL/kg; for AUC(0-t): read-out: AUC0-24 h; for concentration at 24 h: read-out: C24 h. Here is the method:
as §1, §2

A short description of data set [5]: Pharmacokinetic study after oral dosing, non-human primate. The settings on record: cynomolgus monkey, in vivo, solution in 20% kleptose in water, Cyno male, 30 mg/kg, Fed, 5 mL/kg. Here is the method:
as §1, §2

The nature of data set [6]: Dynamic vapor sorption (DVS) mass change. It is filed as physicochemical. The conditions noted are these: 95% RH at 25° C. The source says:
[table] The mass change by DVS isotherm (2 cycles 40-0-95-0-40% RH) are in the tables below. The mass change is based on the dry weight of each.

Where [7] appears, read: fassgf or other biorelevant, FaSSGF, 24 h.

Where two headings read alike, the source gives them in different places. A value given as a limit tells only on which side of the number the result lay.

On to `COc1cc(C)c2[nH]ccc2c1CN1CCC2(C[C@H]1c1ccc(C(=O)O)cc1)CC(F)(F)C2.Cl` [Form D, (S)-4-(2,2-difluoro-7-((5-methoxy-7-methyl-1H-indol-4-yl)methyl)-7-azaspiro[3.5]nonan-6-yl)benzoic acid hydrochloride salt], for which the solubility at 30 min in data set [1] (fassgf or other biorelevant, FaSSGF, 30 min) was 2.25 mg/mL; in data set [1] (fassif, FaSSIF, 30 min), 2.19 mg/mL; in data set [1] (fessif, FeSSIF, 30 min) it was 2.19 mg/mL; in data set [1] (pH 7, water, Water, initial pH 7.00, 30 min) it was 2.08 mg/mL. Besides, the solubility at 24 h in data set [1] (setting [7]) is greater than 2 mg/mL; in data set [1] (fassif, FaSSIF, 24 h) it was greater than 2 mg/mL; in data set [1] (fessif, FeSSIF, 24 h) it was 2.33 mg/mL; in data set [1] (pH 7, water, Water, initial pH 7.00, 24 h), greater than 2 mg/mL. The “pH at 24 h” value is 1.57 in data set [1] (FaSSGF); 6.17 in data set [1] (FaSSIF); 4.95 in data set [1] (FeSSIF); 3.13 in data set [1] (Water, initial pH 7.00).
As to `CCO[C@H]1CCN(Cc2c(OC)cc(C)c3[nH]ccc23)[C@H](c2ccc(C(=O)O)cc2)C1` [iptacopan], in data set [2], the “efficacy in Phase II clinical trial in C3G” value is recorded as “reduced proteinuria”.
As to `COc1cc(C)c2[nH]ccc2c1CN1CCC2(C[C@H]1c1ccc(C(=O)O)cc1)CC(F)(F)C2` [(S)-4-(2,2-difluoro-7-((5-methoxy-7-methyl-1H-indol-4-yl)methyl)-7-azaspiro[3.5]nonan-6-yl)benzoic acid], the AUC(0-t) in data set [3] (2 mg/kg, 2 mg/kg) amounted to 20.5 µM·h; in data set [3] (300 mg/kg, 300 mg/kg), 1110 µM·h; in data set [4] (2 mg/kg), 54.3 µM·h; in data set [4] (100 mg/kg), 1320 µM·h; in data set [5] (read-out: AUC0-24 h), 96.1 µM·h. In addition, the concentration at 24 h worked out at 0.21 µM in data set [3] (2 mg/kg, 2 mg/kg); 18 µM in data set [3] (300 mg/kg, 300 mg/kg); 1.73 µM in data set [4] (2 mg/kg); 18.8 µM in data set [4] (100 mg/kg); 1.75 µM in data set [5] (read-out: C24 h). The highest concentration (Cmax) in data set [3] (2 mg/kg) was 2.42 µM; in data set [3] (300 mg/kg), 94 µM; in data set [4] (2 mg/kg), 3.64 µM; in data set [4] (100 mg/kg) it was 139 µM; in data set [5] it was 8.6 µM.
As to `COc1cc(C)c2[nH]ccc2c1CN1CCC2(C[C@H]1c1ccc(C(=O)O)cc1)CC(F)(F)C2.Cc1ccc(S(=O)(=O)O)cc1` [Form C, (S)-4-(2,2-difluoro-7-((5-methoxy-7-methyl-1H-indol-4-yl)methyl)-7-azaspiro[3.5]nonan-6-yl)benzoic acid p-toluene sulfonic acid salt], the “moisture absorbed by DVS (absorbs up to)” value in data set [6] is listed as “up to 0.4%”. Besides, the solubility at 24 h in data set [1] (setting [7]) was 0.85 mg/mL. Besides, the “pH at 24 h” value is on record as 1.56 in data set [1] (FaSSGF); 6.25 in data set [1] (FaSSIF); 4.97 in data set [1] (FeSSIF); 3.37 in data set [1] (Water, initial pH 7.00). Besides, the “Solubility (mg/mL) 30 min” value was 0.87 mg/mL in data set [1] (FaSSGF, 30 min); 1.68 mg/mL in data set [1] (FaSSIF, 30 min); 1.63 mg/mL in data set [1] (FeSSIF, 30 min); 0.88 mg/mL in data set [1] (Water, initial pH 7.00, 30 min). The “Solubility (mg/mL) 24 h” value in data set [1] (FaSSIF, 24 h) is listed as 0.13 mg/mL; in data set [1] (FeSSIF, 24 h), 1.69 mg/mL; in data set [1] (Water, initial pH 7.00, 24 h) it was 1.12 mg/mL.
